Data set [1] in a line: Evaluation of biological availability (bioavailability) in rat. The format is in vivo. The conditions noted are these: for AUC: rat, fasted female SD rats, plasma. The procedure:
Free base•Form-I crystal was administered to female SD rats fasted from the day before the experiment and the plasma concentration was measured under the following conditions. As a result, the areas under blood concentration-time curve (AUC) of the drug after intravenous administration and oral administration are as shown in Table 1.
• Dosing formulation: 0.5 mg/ml in aqueous physiological saline. • Dose: 1 mg/2 ml/kg • Administration method: bolus administration from the tail vein Collection of blood samples: About 0.1-0.2 mL of blood was taken from the cervical vein at 3 min, 10 min, 30 min, 1 hr, 2 hr, 4 hr and 6 hr after administration. The blood was centrifuged, and the plasma was separated.
• Dosing formulation: 2 mg/ml suspension adjusted by gradually adding aqueous hydroxypropylmethylcellulose solution to the compound of the present invention thoroughly triturated in an agate mortar. • Dose: 10 mg/5 ml/kg • Administration method: Forcible administration into the stomach • Collection of blood samples: About 0.1-0.2 mL of blood was taken from the cervical vein at 30 min, 1 hr, 2 hr, 4 hr, 6 hr, 8 hr and 24 hr after administration. The blood was centrifuged, and the plasma was separated.
The plasma concentration of the administered compound was measured by LC-MS/MS.
LC conditions • Column: Capcellpak C18 UG-120 (2.0φ mm×50 mm, S-5 μm, Shiseido Co., Ltd.) • Mobile phase: acetonitrile • Flow rate: 0.25 mL/min • Column temperature: room temperature • Auto sampler temperature set to: 25° C. • Gradient setting: • 0 min→0.6 min:25%→25% • 0.6 min→3.6 min:25%→75% • 3.6 min→6 min:75%→75% • 6 min→6.1 min:75%→25% • 6.1 min→9.5 min:25%→25% • MS/MS conditions • Ionization method: ESI • Capillary temperature: 350° C. • Sheath gas pressure: 80 psi • Spray voltage: 4.5 kV.
The plasma concentration of the racemate was measured by a similar method, and the biological availability was calculated and found to be 20%.

Data set [2] in a line: Solubility test (Japanese Pharmacopoeia Solution 2). The format is physicochemical. The note with it: for solubility after 30 min: Japanese Pharmacopoeia Solution 2, 37° C., shaken 30 min. The procedure: An adequate amount of a sample was taken, and a test solution (The Japanese Pharmacopoeia Solution 2) was added to each to a concentration of about 1 mg/ml. The sample was dispersed by ultrasonication for 2 min, shaken at 37° C. for 30 min, and the solution was filtered through DISMIC13HP ([…]). The filtrate in the early stage (3 ml) was removed, the subsequent filtrate (500 μl) was precisely measured, and the dilution solution (water/acetonitrile/trifluoroacetic acid mixture=500:500:1, 500 μl) was accurately added to give a sample solution. The sample solution and the standard solution prepared in Experimental Example 5 were subjected to the measurement under the similar HPLC conditions as in Experimental Example 5.

The next data set concerns the target T1, C5a receptor (Homo sapiens, UniProt P21730).
T1 construct: neutrophil fraction was separated from human peripheral intravenous blood; endogenous in cells; host or cells: human peripheral blood neutrophils (whole cells)
T1 sequence (P21730 1-350): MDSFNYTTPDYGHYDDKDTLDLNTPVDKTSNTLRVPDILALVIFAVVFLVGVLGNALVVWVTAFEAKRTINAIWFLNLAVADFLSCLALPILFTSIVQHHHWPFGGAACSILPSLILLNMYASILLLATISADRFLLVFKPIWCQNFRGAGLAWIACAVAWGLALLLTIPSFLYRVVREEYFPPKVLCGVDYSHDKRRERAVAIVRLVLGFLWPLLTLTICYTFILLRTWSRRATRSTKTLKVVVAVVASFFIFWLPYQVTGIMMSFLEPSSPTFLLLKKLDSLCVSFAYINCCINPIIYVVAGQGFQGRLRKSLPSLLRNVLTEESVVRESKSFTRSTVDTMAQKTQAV
As to the kind of experiment: C5a receptor binding assay ([125I]-human C5a, human peripheral blood neutrophil). The note with it: [125I]-C5a 200 pM, 4° C. for 2 hr, read-out: IC50 value, inhibition of [125I]-human C5a binding. The procedure: The C5a receptor binding inhibitory action of C5a and the test compound was evaluated by a receptor binding assay comprising of human peripheral blood neutrophil, which expresses the C5a receptor, and [^125I]-human C5a (Amersham Pharmacia Biotech) in a MultiScreen (MILLIPORE). First, neutrophil fraction was separated from human peripheral intravenous blood using lympholyte-poly (Cedarlane), and suspended in a Binding buffer [50 mM HEPES, 1 mM CaCl2, 5 mM MgCl2, 0.5% bovine albumin (BSA, SIGMA), 0.02% NaN3 (pH 7.2)]. The binding assay was started by the addition of 1×10^5 cells/50 μL neutrophil suspension, 25 μL of a test compound solution (obtained by dissolving the test compound in N,N-dimethylformamide to a final concentration of 10 mmol/L and diluting with binding buffer), and 25 μL of [^125I]-C5a solution (final concentration 200 pM), to each well of the MultiScreen. […] After drying the MultiScreen, the radioactivity on the filter was measured using a gamma counter.
The rate of inhibition (% inhibition) of C5a binding by the test compound was calculated by the following formula using the count value obtained without addition of the test compound as Total, the count value obtained with addition of non-labeled C5a as Non, and the count value obtained with addition of the test compound as Test. […]

In data set [3] the test system is collagen-induced arthritis. As to the kind of experiment: Collagen-induced arthritis in monkey (articular swelling score). It counts as in vivo, cynomolgus monkey.
Data set [4] deals with C5a stimulated neutrophil. Put plainly: Production of reactive oxygen species in C5a-stimulated neutrophil. The format is cell-based. The conditions noted are these: human neutrophil, C5a 3 nmol/L, luminol luminescence, 37° C.; read-out: IC50 value, inhibition of production of reactive oxygen species in C5a stimulated neutrophil. The procedure: A neutrophil fraction was separately taken from human peripheral venous blood using Lympholyte-poly (Cedarlane), and suspended in Hank's Balanced Salt Solution (HBSS, GIBCO BRL) containing 1% fetal bovine serum (FBS) and 1 mmol/L luminol (Wako Pure Chemical Industries, Ltd.). Reactive oxygen species was measured using a luminometer (MicroLumat, Berthold) for 96-well plate. […] Then, 25 μL of C5a (final concentration 3 nmol/L) was added and luminescence produced by the reaction of the luminol and the reactive oxygen species was measured with the lapse of time for 15 min. The rate of inhibition (% inhibition) of the production of reactive oxygen species in C5a stimulated neutrophil by the test compound was calculated by the following formula, wherein the peak value of the production of reactive oxygen species derived by C5a without addition of the test compound is Max, the peak value of the production of reactive oxygen species without addition of the test compound and without C5a stimulation is Min, and the peak value of the production of reactive oxygen species derived by C5a with the addition of the test compound is Test. […]

The nature of data set [5]: Dissolution test (JP Dissolution Test Method 2, paddle method). The format is physicochemical. The note with it: JP second fluid 900 ml, paddle 50 rpm, 37° C., about 10 mg based on free form. The procedure:
The compounds obtained in Examples 22, 24 and 25, free base•Form-I crystal, and the racemate of the compound of Example 3 were subjected to a dissolution test, and the dissolution rate was compared. According to this test method, the amount of dissolution relative to the content of each compound in the test solution is expressed in the dissolution rate (%), which was measured over time.
For the method of adding each compound, the compound (about 10 mg based on free form) was precisely weighed and directly added to a vessel. As the test solution, The Japanese Pharmacopoeia second fluid (900 ml) was used, and the test was performed according to The Japanese Pharmacopoeia Dissolution Test Method 2 (Paddle Method) at 50 rpm. The test temperature was 37° C. After the start of the test, solution for dissolution (10 ml) was taken at suitable times, and a test solution (10 ml) heated to 37° C. was soon carefully added for compensation. The collected solution for dissolution was passed through a filter (DISMIC 13HP PTFE (0.45 μm); Toyo Roshi Kaisha). The filtrate in the early stage (5 ml) was removed, the subsequent filtrate (500 μl) was precisely measured, and the dilution solution (water/acetonitrile/trifluoroacetic acid mixture=500:500:1, 500 μl) was accurately added to give a sample solution.
Separately, about 10 mg of the free base•Form-I crystal was precisely weighed, and a dilution solution (water/acetonitrile/trifluoroacetic acid mixture=500:500:1) was added to 50 ml sharp. This solution (2.5 ml) was precisely measured, and a dilution solution (water/acetonitrile/trifluoroacetic acid mixture=500:500:1) was added to 50 ml sharp. This was used as the standard solution of free base•Form-I crystal (10 μg/ml). The sample solution and the standard solution were measured under the HPLC conditions shown below, the peak areas AT and AS of the free base•Form-I crystal in each solution were measured, and the dissolution rate was determined by the following formula.
The nth dissolution rate (%) of free base•Form-I crystal=Wn/W100%×100 • W1: the first dissolution amount (mg) of free base•Form-I crystal
=(900×AT1)×WS/AS/1000 • Wn: the nth (n>1) dissolution amount (mg) of free base•Form-I crystal
={900×ATn+10×(AT1+AT2 . . . +ATn−1)}×WS/AS/1000 • W100%: cast amount (mg) of drug substance • Ws: collected amount (mg) of free base•Form-I crystal standard product • As: peak area of free base•Form-I crystal in standard solution • AT1: peak area of free base•Form-I crystal in sample solution by the first sampling • ATn: peak area of free base•Form-I crystal in sample solution by the nth sampling. • For racemate, the dissolution rate was calculated based on the total value of S form and R form. […]

Structures are written as SMILES. In brackets after ≈: the same amount, converted by molar mass.

Usually AUC stands for concentration integrated over time. What is called IC50 is the concentration that inhibits the measured activity by half.

In turn, `CCn1cc(CN(C(=O)[C@H]2CCCc3c(O)cccc32)c2ccc(C(C)C)nc2)cn1` [Example 3, (1S)-(−)-N-[(1-ethyl-1H-pyrazol-4-yl)methyl]-5-hydroxy-N-(6-isopropylpyridin-3-yl)-1,2,3,4-tetrahydronaphthalene-1-carboxamide] showed a biological availability in data set [1] (female SD rats, oral 10 mg/kg vs intravenous 1 mg/kg) of 62%. The area under the curve (AUC) in data set [1] (intravenous administration 1 mg/kg) turned out to be 264 ng·h/mL; in data set [1] (oral administration 10 mg/kg), 1640 ng·h/mL. Moreover, the “solubility after 30 min” value in data set [2] (listed as free base•Form-I crystal) was found to be 66 µg/mL (≈ 158 µM). The concentration for half-maximal inhibition (IC50) on C5a receptor stood at 10 nM; in data set [4], 2.8 nM. The “articular swelling score, average” value in data set [3] (before administration, cynomolgus monkey, 10 per group, control group average 49) was determined as 49; in data set [3] (day 14 of administration, oral, day 36 to day 50, control group average 82) it was 61. Also, the “effect on aggravation of arthritis” value in data set [3] (oral administration day 36 to day 50, cynomolgus monkey) was “significantly suppressed aggravation of arthritis”.

`CCn1cc(CN(C(=O)[C@H]2CCCc3c(O)cccc32)c2ccc(C(C)C)nc2)cn1` [Example 22, (1S)-(−)-N-[(1-ethyl-1H-pyrazol-4-yl)methyl]-5-hydroxy-N-(6-isopropylpyridin-3-yl)-1,2,3,4-tetrahydronaphthalene-1-carboxamide]: in data set [5], the “dissolution rate (comparison)” value is “faster than that of the free base•Form-I crystal”.

Regarding `CCn1cc(CN(C(=O)[C@H]2CCCc3c(O)cccc32)c2ccc(C(C)C)nc2)cn1` [Example 23, (1S)-(−)-N-[(1-ethyl-1H-pyrazol-4-yl)methyl]-5-hydroxy-N-(6-isopropylpyridin-3-yl)-1,2,3,4-tetrahydronaphthalene-1-carboxamide], in data set [2] (JP Solution 2, 37° C., 30 min), the “solubility relative to free base•Form-I crystal” value came out at 2.5 fold and the “solubility relative to the racemate” value was “about 5 fold”. In addition, the “solubility after 30 min” value in data set [2] amounted to 165 µg/mL (≈ 394 µM).

Regarding `CCn1cc(CN(C(=O)[C@H]2CCCc3c(O)cccc32)c2ccc(C(C)C)nc2)cn1.Cl` [Example 24, (1S)-(−)-N-[(1-ethyl-1H-pyrazol-4-yl)methyl]-5-hydroxy-N-(6-isopropylpyridin-3-yl)-1,2,3,4-tetrahydronaphthalene-1-carboxamide monohydrochloride], in data set [5], the “dissolution rate (comparison)” value was “faster than that of the free base•Form-I crystal”.

Take `Br.CCn1cc(CN(C(=O)[C@H]2CCCc3c(O)cccc32)c2ccc(C(C)C)nc2)cn1` [Example 25, (1S)-(−)-N-[(1-ethyl-1H-pyrazol-4-yl)methyl]-5-hydroxy-N-(6-isopropylpyridin-3-yl)-1,2,3,4-tetrahydronaphthalene-1-carboxamide monohydrobromide]: in data set [5], the “dissolution rate (comparison)” value is listed as “faster than that of the free base•Form-I crystal”.

The values above are taken from patent publication US20080194640A1, “Optically Active Tetrahydronaphthalene Derivative” (priority 2005, published 2008).
